Laboratory results published in US20060069132A1, “Azolecarboxamide herbicides” (priority 2004, published 2006).

What was measured:
barnyardgrass = assay: Test B pre-/postemergence herbicide test; format: in vivo, Echinochloa crus-galli
In short: (§1)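 Herbicidal effect was judged by eye on a 0–100 scale after plants stood 13 to 15 days in the greenhouse following pre- or postemergence treatment with surfactant-containing formulations.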

Surinam grass = assay: Test B pre-/postemergence herbicide test; format: in vivo, Urochloa decumbens
In short: (§2)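 Plants compared with untreated controls 13–15 days post-treatment and given a visual 0–100 injury score. Applications: preemergence to seeds; postemergence at 1- to 4-leaf (2–18 cm); paddy species flooded, 2-leaf stage. Vehicle non-phytotoxic, surfactant included.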

cocklebur = assay: Test B pre-/postemergence herbicide test; format: in vivo, Xanthium strumarium
In short: as §1

corn = assay: Test B pre-/postemergence herbicide test; format: in vivo, Zea mays
In short: as §2

large crabgrass = assay: Test B pre-/postemergence herbicide test; format: in vivo, Digitaria sanguinalis
In short: as §2

giant foxtail = assay: Test B pre-/postemergence herbicide test; format: in vivo, Setaria faberi
In short: as §2

lambsquarters = assay: Test B pre-/postemergence herbicide test; format: in vivo, Chenopodium album
In short: as §2

pigweed = assay: Test B pre-/postemergence herbicide test; format: in vivo, Amaranthus retroflexus
In short: as §2

velvetleaf = assay: Test B pre-/postemergence herbicide test; format: in vivo, Abutilon theophrasti
In short: as §2

blackgrass = assay: Test B postemergence herbicide test; format: in vivo, Alopecurus myosuroides
In short: (§3)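 Treated at 2-leaf (paddy) or 1–4-leaf, 2–18 cm (postemergence); greenhouse 13–15 d; visual score vs control, 0 none to 100 complete control; dash = not tested.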

wheat = assay: Test B postemergence herbicide test; format: in vivo, Triticum aestivum; parameters: key to Wheat plant response rating: 0 = no effect, 100 = complete control
In short: (§4)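 Plants grow to 1- to 4-leaf stage (2–18 cm) for postemergence spraying, or to 2-leaf stage for the paddy test. Formulated compound is applied. Greenhouse holding lasts 13–15 days. Response is scored visually relative to controls, 0 no effect to 100 complete control; a dash means no result.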

wild oat = assay: Test B postemergence herbicide test; format: in vivo, Avena fatua; details: scale 0 (no effect) to 100 (complete control)
In short: as §4

rice = assay: Test B flooded paddy test; format: in vivo, Oryza sativa; details: 1000 g ai/ha, scale 0 to 100 (0 no effect, 100 complete control)
In short: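 Formulated test chemicals went onto postemergence plants measuring 2 to 18 cm, at one to four leaves. For the paddy assay, species had reached two leaves. Scoring took place 13–15 days later by eye, relative to untreated plants, using 0 for no effect up to 100 for full control.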

[1] = system: small flower umbrella sedge; assay: Test B flooded paddy test; format: in vivo, Cyperus difformis; details: 1000 g ai/ha, scale 0 to 100 (0 no effect, 100 complete control)
In short: as §3

ducksalad = assay: Test B flooded paddy test; format: in vivo, Heteranthera limosa; details: 1000 g ai/ha, scale 0 to 100 (0 no effect, 100 complete control)
In short: as §3

[2] = Postemergence, 500 g ai/ha, visual rating after 13 to 15 days, scale 0 (no effect) to 100 (complete control)
[3] = Preemergence, 500 g ai/ha, scale 0 to 100
[4] = postemergence, 125 g ai/ha, visual rating, scale 0 (no effect) to 100 (complete control)
[5] = preemergence, 125 g ai/ha, 0 to 100 scale, 0 is no effect, 100 is complete control
[6] = Postemergence, 500 g ai/ha; visual rating after 13 to 15 days, scale 0 (no effect) to 100 (complete control)
[7] = postemergence, 125 g ai/ha; visual rating, scale 0 (no effect) to 100 (complete control)
[8] = preemergence, 125 g ai/ha; 0 to 100 scale, 0 is no effect, 100 is complete control
[9] = postemergence, 125 g ai/ha, visual rating
[10] = 500 g ai/ha, visual rating 0-100, 0 no effect, 100 complete control, preemergence
[11] = postemergence, 500 g ai/ha, visual rating, scale 0 (no effect) to 100 (complete control)
[12] = postemergence, 500 g ai/ha; visual rating, scale 0 (no effect) to 100 (complete control)
[13] = 125 g ai/ha, 0 is no effect, 100 is complete control, preemergence
[14] = 125 g ai/ha, visual rating, scale 0 (no effect) to 100 (complete control), postemergence
[15] = postemergence, 500 g ai/ha, scale 0 to 100, 0 is no effect, 100 is complete control
[16] = Postemergence, 500 g ai/ha, scale 0 (no effect) to 100 (complete control)
[17] = 125 g ai/ha; visual rating, scale 0 (no effect) to 100 (complete control); postemergence
[18] = postemergence, 500 g ai/ha; scale 0 to 100, 0 is no effect, 100 is complete control

CCn1nc(C(C)(C)C)cc1C(=O)Nc1cccc(C(=O)NOC)c1 [Compound 67]
80: Barnyardgrass plant response rating (barnyardgrass; [3]) | Sedge, Umbrella plant response rating ([1]; visual rating, 13 to 15 days) | Ducksalad plant response rating (ducksalad; visual rating, 13 to 15 days)
10: Plant response rating, Barnyardgrass (barnyardgrass; [2]) | Barnyardgrass plant response rating (barnyardgrass; [4]) | Plant response rating, Surinam Grass (Surinam grass; [2]) | Surinam Grass plant response rating (Surinam grass; [4]) | Plant response rating, Corn (corn; [6]) | Corn plant response rating (corn; [7]) | Plant response rating, Crabgrass, Large (large crabgrass; [2]) | Crabgrass, Large plant response rating (large crabgrass; [4]) | Plant response rating, Foxtail, Giant (giant foxtail; [2]) | Foxtail, Giant plant response rating (giant foxtail; [3]) | Foxtail, Giant plant response rating (giant foxtail; [4]) | Plant response rating, Velvetleaf (velvetleaf; [2]) | Velvetleaf plant response rating (velvetleaf; [4]) | Plant response rating, Blackgrass (blackgrass; [6]) | Blackgrass plant response rating (blackgrass; [7]) | Plant response rating, Wheat (wheat; [2]) | Wheat plant response rating (wheat; [4]) | Oat, Wild plant response rating (wild oat; [9])
70: Plant response rating, Cocklebur (cocklebur; [2])
60: Plant response rating, Lambsquarters (lambsquarters; [2]) | Rice plant response rating (rice; visual rating, 13 to 15 days)
40: Lambsquarters plant response rating (lambsquarters; [4])
0: Plant response rating, Barnyardgrass (barnyardgrass; [5]) | Plant response rating, Surinam Grass (Surinam grass; [5]) | Cocklebur plant response rating (cocklebur; [3]) | Cocklebur plant response rating (cocklebur; [4]) | Plant response rating, Cocklebur (cocklebur; [5]) | Plant response rating, Corn (corn; [8]) | Plant response rating, Crabgrass, Large (large crabgrass; [5]) | Plant response rating, Foxtail, Giant (giant foxtail; [5]) | Plant response rating, Lambsquarters (lambsquarters; [5]) | Pigweed plant response rating (pigweed; [4]) | Plant response rating, Pigweed (pigweed; [5]) | Plant response rating, Velvetleaf (velvetleaf; [5])
30: Plant response rating, Oat, Wild (wild oat; Postemergence, 500 g ai/ha, visual rating after 13 to 15 days)
20: Crabgrass, Large plant response rating (large crabgrass; [3]) | Plant response rating, Pigweed (pigweed; [2])

CCn1nc(C(C)(C)C)cc1C(=O)Nc1cc(C#N)ccc1F [Compound 140]
20: Plant response rating, Barnyardgrass (barnyardgrass; [5]) | Cocklebur plant response rating (cocklebur; [11]) | Lambsquarters plant response rating (lambsquarters; [4]) | Plant response rating, Velvetleaf (velvetleaf; [10])
30: Rice plant response rating (rice; visual rating, 13 to 15 days)
80: Plant response rating, Barnyardgrass (barnyardgrass; [10]) | Plant response rating, Cocklebur (cocklebur; [10]) | Plant response rating, Foxtail, Giant (giant foxtail; [10]) | Lambsquarters plant response rating (lambsquarters; [11]) | Plant response rating, Pigweed (pigweed; [10]) | Sedge, Umbrella plant response rating ([1]; visual rating, 13 to 15 days) | Ducksalad plant response rating (ducksalad; visual rating, 13 to 15 days)
10: Corn plant response rating (corn; [12])
0: Barnyardgrass plant response rating (barnyardgrass; [4]) | Barnyardgrass plant response rating (barnyardgrass; [11]) | Surinam Grass plant response rating (Surinam grass; [4]) | Surinam Grass plant response rating (Surinam grass; [11]) | Plant response rating, Surinam Grass (Surinam grass; [5]) | Cocklebur plant response rating (cocklebur; [4]) | Plant response rating, Corn (corn; 500 g ai/ha; visual rating 0-100, 0 no effect, 100 complete control; preemergence) | Corn plant response rating (corn; [7]) | Plant response rating, Corn (corn; [8]) | Crabgrass, Large plant response rating (large crabgrass; [4]) | Crabgrass, Large plant response rating (large crabgrass; [11]) | Plant response rating, Crabgrass, Large (large crabgrass; [5]) | Foxtail, Giant plant response rating (giant foxtail; [4]) | Foxtail, Giant plant response rating (giant foxtail; [11]) | Plant response rating, Foxtail, Giant (giant foxtail; [5]) | Plant response rating, Lambsquarters (lambsquarters; [5]) | Pigweed plant response rating (pigweed; [4]) | Pigweed plant response rating (pigweed; [11]) | Plant response rating, Pigweed (pigweed; [5]) | Velvetleaf plant response rating (velvetleaf; [4]) | Velvetleaf plant response rating (velvetleaf; [11]) | Plant response rating, Velvetleaf (velvetleaf; [5]) | Blackgrass plant response rating (blackgrass; [7]) | Blackgrass plant response rating (blackgrass; [12]) | Wheat plant response rating (wheat; [11]) | Oat, Wild plant response rating (wild oat; [9]) | Oat, Wild plant response rating (wild oat; postemergence, 500 g ai/ha, visual rating)
100: Plant response rating, Crabgrass, Large (large crabgrass; [10]) | Plant response rating, Lambsquarters (lambsquarters; [10])
60: Plant response rating, Surinam Grass (Surinam grass; [10])

CCc1nn(C(C)(C)CC)nc1C(=O)Nc1cccc(C(=O)N(C)C)c1 [Compound 372]
10: Barnyardgrass plant response rating (barnyardgrass; [14]) | Surinam Grass plant response rating (Surinam grass; [14]) | Surinam Grass plant response rating (Surinam grass; [16]) | Plant response rating (0 to 100 scale), Cocklebur (cocklebur; [13]) | Crabgrass, Large plant response rating (large crabgrass; [14]) | Plant response rating (0 to 100 scale), Velvetleaf (velvetleaf; [13]) | Velvetleaf plant response rating (velvetleaf; [14]) | Blackgrass plant response rating (blackgrass; [17]) | Wheat plant response rating (wheat; [16])
100: Plant response rating (0 to 100 scale), Lambsquarters (lambsquarters; [13])
30: Cocklebur plant response rating (cocklebur; [15]) | Foxtail, Giant plant response rating (giant foxtail; [14]) | Velvetleaf plant response rating (velvetleaf; [16]) | Blackgrass plant response rating (blackgrass; [18]) | Oat, Wild plant response rating (wild oat; Postemergence, 500 g ai/ha)
60: Barnyardgrass plant response rating (barnyardgrass; [15]) | Plant response rating (0 to 100 scale), Corn (corn; 125 g ai/ha; 0 is no effect, 100 is complete control; preemergence) | Corn plant response rating (corn; [18]) | Plant response rating (0 to 100 scale), Foxtail, Giant (giant foxtail; [13])
0: Wheat plant response rating (wheat; [14]) | Oat, Wild plant response rating (wild oat; 125 g ai/ha, visual rating, postemergence)
80: Plant response rating (0 to 100 scale), Barnyardgrass (barnyardgrass; [13]) | Plant response rating (0 to 100 scale), Crabgrass, Large (large crabgrass; [13]) | Pigweed plant response rating (pigweed; [16])
90: Lambsquarters plant response rating (lambsquarters; [16]) | Wheat plant response rating (wheat; 500 g ai/ha, scale 0 to 100, 0 no effect, 100 complete control, preemergence) | Rice plant response rating (rice) | Sedge, Umbrella plant response rating [1] | Ducksalad plant response rating (ducksalad)
20: Cocklebur plant response rating (cocklebur; [14]) | Corn plant response rating (corn; [17]) | Crabgrass, Large plant response rating (large crabgrass; [15])
50: Plant response rating (0 to 100 scale), Surinam Grass (Surinam grass; [13]) | Foxtail, Giant plant response rating (giant foxtail; [15])
40: Lambsquarters plant response rating (lambsquarters; [14]) | Pigweed plant response rating (pigweed; [14])
